Several values for one entry are separate records, joined by “and”; a condition that tells them apart may be missing. Equal values may be shown once. Read-outs that look alike come from different tables or passages of the source.
Legend:
[1] = Procedure: Equilibrium Solubility Studies. […] Each equilibrium solubility experiment was completed in triplicate. Equilibrium solubility was defined when solubility measured across two consecutive days varied less than 5%. The samples were allowed to equilibrate at 37 °C and were vortex-mixed twice a day to ensure the compounds were well dispersed in the LBF. The samples were left to equilibrate for at least 3 days. […] At each time point, samples were then centrifuged at 37 °C (14,800 rpm (21,000× g), Thermo Scientific, Heraeus Pico 21 Centrifuge) and aliquots of 20 mg were taken from the supernatant and dissolved in 1 mL of chloroform: methanol (2:1, v/v). The chloroform: methanol solution was then diluted 20-fold with water: acetonitrile (1:1, v/v). The samples were then assayed by HPLC to determine the concentration of compound in formulation.
[2] = Supersaturation during in vitro dispersion/digestion testing; format: physicochemical; conditions: for maximum supersaturation ratio SR^Mdisp (APmax/APdigest): dispersion, time 0 min; for maximum supersaturation ratio SR^Mdig (APmax/APdigest): end of digestion, 60 min
Procedure: Supersaturation During In Vitro Testing. The degree of supersaturation of drug concentrations in the aqueous phase during formulation dispersion/digestion was assessed by comparing the measured aqueous phase concentration to equilibrium drug solubility in blank aqueous phase obtained by dispersion and digestion of blank (i.e., non-drug loaded) formulation under identical conditions. Due to the physical state of lumefantrine docusate (i.e., an amorphous semi-solid), the equilibrium solubility assessment was conducted by dissolving 3 mg of IL in 10 µL of ethanol in a microcentrifuge tube and then adding 200 mg of aqueous phase obtained from the blank digestions (n = 3 for each time point for each formulation). The contents were subsequently vortex-mixed for 30 s. […] Supersaturation was assessed at 4 time points during the in vitro dispersion and digestion tests (0 min (end dispersion), and 5, 30, and 60 min (post digestion)) for the Type II-MC, IIIB-MC, IIIB-LC, and IV formulations.
The supersaturation ratio (SR) provides an indication of thermodynamic activity and the likelihood of either drug precipitation, or enhanced absorption from an LBF, where the higher the number, the more supersaturated and therefore the more likely to precipitate during in vitro digestion. The maximum supersaturation ratio (SR^M) provides a measure of the maximum supersaturation pressure that would be generated by digestion of an LBF, assuming no precipitation and is calculated from the following:(1) SR^M=APmax/APdigest where APmax is the maximum possible aqueous phase concentration of drug during the in vitro dispersion and digestion test (i.e., in the absence of any precipitation), and APdigest is the equilibrium solubility of the drug in blank aqueous phase (i.e., where the aqueous phase was obtained from a digestion of blank LBF). Williams et al. have previously proposed that sustainable supersaturation most commonly occurs when SR^M < 3, and that exceeding this threshold increases the likelihood of drug precipitation during in vitro dispersion and digestion tests. Only the Type II-MC, IIIB-MC, IIIB-LC, and IV formulations were evaluated as these were the four formulations chosen to proceed to the in vivo bioavailability studies. The figures also depict APmax, as well as the drug solubility in the aqueous colloidal phase of the blank LBF (APdigest). […] This was most apparent at early time points for the Type II-MCF formulation where SR^M was ~20 and at later time points post digestion for the Type IIIB-MCF where SR^M was >40. […] Similarly, the SR^M for the Type IIIB-MCF at the end of digestion was the highest, but majority of lumefantrine docusate remained solubilized at 60 min (69% solubilized).

[3] = In vitro dispersion and digestion test of LBFs (drug solubilization); format: physicochemical; conditions: for % of drug present in the aqueous phase compared to total drug loading: end of digestion phase (60 min), loading 80% of equilibrium solubility, n = 3
Procedure: In Vitro Drug Solubilization. […] Drug loading in each formulation was at 80% of the equilibrium solubility of the drug or API-IL in that formulation to maintain a consistent thermodynamic activity across all LBFs. In vitro dispersion and digestion experiments were conducted using a pH-stat apparatus (Metrohm® AG, Herisau, Switzerland), which comprised a Titrando 802 propeller stirrer/804 Ti Stand combination, a glass pH electrode (iUnitrode), and two 800 Dosino dosing units coupled to 10 mL autoburettes (Metrohm® AG). The pH-stat was connected to a PC and operated via Tiamo 2.0 software (Metrohm®). […] The pancreatic enzyme was prepared by mixing 1 g of porcine pancreatin with 5 mL of lipolysis buffer and 20 µL of 5 M NaOH. After mixing, this was then centrifuged at 2880× g at 5 °C for 10 min (Crown Scientific, Eppendorf AG Centrifuge 5804 R, Sydney Australia) and the supernatant used as the enzyme solution. The lipolysis buffer was prepared by dissolving 0.474 g of tris maleate, 0.206 g of CaCl2·H2O, and 8.775 g of NaCl in one liter of distilled water to form a 2 mM tris maleate 1.4 mM CaCl2·H2O 150 mM NaCl buffer; the pH was adjusted to 6.5 using NaOH. The micellar solution was prepared by dissolving 0.783 g of NaTDC and 0.291 g of PC in 500 mL of lipolysis buffer to form a 3 mM NaTDC 0.75 mM PC solution. […] This drop in pH was detected by the pH-stat controller, which then titrated the FA produced using an autoburette that added NaOH to keep the pH at a set point (0.6 M NaOH for MCFs, and 0.2 M NaOH for LCFs). By knowing the quantity of NaOH added and assuming stoichiometric titration, this indirectly quantified the extent of FA production (as a measure of digestion). […] The mass of the drug recovered in the aqueous phase and the pellet phase was then quantified by HPLC [35, 36]. The supernatant and pellet samples were diluted with acetonitrile (1:10 v/v) and then mobile phase (1:10 v/v), and lumefantrine concentrations in the samples determined using HPLC [35, 36, 37, 38].

[4] = Oral bioavailability study in rats; format: in vivo, male Sprague-Dawley rats
Procedure: Oral Bioavailability Studies. […] Experiments were conducted in fasted male Sprague-Dawley rats (240–320 g). The day prior to the study, the rats were anaesthetized with isoflurane and the right carotid artery was surgically cannulated with polyethylene tubing to facilitate blood collection (procedure described previously) [40]. Animals were allowed to recover overnight and were fasted up to 12 h prior to and 8 h after dose administration, with water provided ad libitum. The rats were fed 8 h after dosing.
Animals were then administered a further 0.5 mL of water. […] The aqueous suspension comprised 0.5% w/v sodium carboxymethylcellulose, 0.4% w/v Tween 80, and 0.9% NaCl in water.
Blood samples were collected via the carotid artery cannula at pre-dose, 0.5, 1, 2, 3, 4, 6, 8, 10, and 24 h after oral administration of the formulations. Blood samples were centrifuged at 6700× g for 5 min and plasma was collected and stored at −20 °C until assayed by LC-MS. Statistically significant differences between formulations were determined by one-way analysis of variance (ANOVA) at a test significance level of α ≤ 0.05, followed by a Tukey’s multiple comparisons test.
Plasma Sample Preparation and Analysis. Lumefantrine concentrations in rat plasma were assayed via LC-MS using a modification of a previously published assay for lumefantrine [41]. […] Plasma samples or calibration standards (50 µL) were spiked with 10 µL of internal standard (halofantrine hydrochloride, 1000 ng/mL in 1:1 v/v water: acetonitrile) followed by vortex mixing for 10 s. To precipitate plasma proteins, acetonitrile (200 µL) was added and samples vortex mixed for 1 min. The samples were then allowed to stand at room temperature for 30 min. After centrifugation at 10,000× g for 10 min at room temperature, 150 µL of supernatant was transferred into vials for analysis.
Lumefantrine plasma samples were analyzed using a Shimadzu LCMS-8050 system (Shimadzu Scientific Instruments, Kyoto, Japan) consisting of a CBM-20A system controller, a DGU-20A5R degassing unit, two Nexera X2 LC-30 AD liquid chromatograph pumps, a Nexera X2 SIL-30AC autosampler, a CTO-20A column oven (held at 40 °C), and a triple quadrupole mass spectrometer with an electrospray ionization (ESI) interface. Data acquisition and processing was performed using LC-MS Solutions software (Shimadzu, Kyoto, Japan). The desolvation line (DL) and heat block were kept at 250 °C and 400 °C, respectively. The nebulizing gas flow and drying gas flow rates were 3.0 L/min and 10.0 L/min, respectively. Mobile phase A was Milli-Q water containing 0.1% w/v formic acid, and mobile phase B was acetonitrile containing 0.1% w/v formic acid. […] Mobile phase B was then held at 80% for 0.5 min, followed by a linear decrease to 30% over the next 0.5 min after which conditions were held for another 0.5 min.

[5] = design: method as in PMID 30376336; conditions: cited from earlier work
[6] = cited from earlier work
[7] = design: method as in PMID 23531442; conditions: cited from earlier work

Compound: CCCCC(CC)COC(=O)CC(C(=O)OCC(CC)CCCC)S(=O)(=O)O.CCCCN(CCCC)CC(O)c1cc(Cl)cc2c1-c1ccc(Cl)cc1C2=Cc1ccc(Cl)cc1 (racemic) [lumefantrine docusate]
- miscibility in the Type IV formulation [1]: miscible
- solubility in LBF, fold higher than lumefantrine free base [1]: 2- to 80 fold
- solubility in the Type IV formulation (proportions) [1]: > 1:1 w/w
- maximum supersaturation ratio SR^Mdisp (APmax/APdigest) ([2]; Type II-MCF): ~ 20 and 19.9
- supersaturation ratio SR (measured aqueous phase concentration / equilibrium solubility in blank aqueous phase) ([2]; Type II-MCF, during dispersion): 5.5
- maximum supersaturation ratio SR^Mdig (APmax/APdigest) ([2]; Type II-MCF): 8.0
- maximum supersaturation ratio SR^Mdisp (APmax/APdigest) ([2]; Type IIIB-LCF): 3.6
- maximum supersaturation ratio SR^Mdig (APmax/APdigest) ([2]; Type IIIB-LCF): 7.9
- maximum supersaturation ratio SR^Mdisp (APmax/APdigest) ([2]; Type IIIB-MCF): 5.7
- maximum supersaturation ratio SR^Mdig (APmax/APdigest) ([2]; Type IIIB-MCF): > 40 and 43.2
- supersaturation throughout the in vitro test ([2]; Type IV formulation): no supersaturation was evident
- maximum supersaturation ratio SR^Mdisp (APmax/APdigest) ([2]; Type IV): 6.3
- maximum supersaturation ratio SR^Mdig (APmax/APdigest) ([2]; Type IV): 8.1
- maximum supersaturation ratio SR^M ([2]; in all cases: Type II-MC, IIIB-MC, IIIB-LC and IV formulations): higher than 3
- % of drug present in the aqueous phase compared to total drug loading ([3]; Type IIIB-LCF): 89%
- % of drug present in the aqueous phase compared to total drug loading ([3]; Type IIIB-MCF): 69%
- drug concentration in the aqueous phase, fold higher than the equivalent lumefantrine free base formulations ([3]; after dispersion and digestion, range over all LBFs): 2-to-55 fold
- exposure, fold enhanced when compared to the free base ([4]; IL in LBF vs free base suspensions 85 mg/kg): up to 50 fold
- increase in exposure after oral administration compared to aqueous suspension of the free base ([4]; Type IIIB LC formulation 65 mg/kg vs aqueous suspension 85 mg/kg): ~ 50 fold
- increase in exposure after oral administration compared to lipid suspension of the free base ([4]; Type IIIB LC formulation 65 mg/kg vs free base suspension in Type IIIB-LCF 85 mg/kg): ~ 10 fold
- systemic exposure (AUC 0 to 24 h), statistical comparison ([4]; Type IIIB-LCF 65 mg/kg, one-way ANOVA, p < 0.05, n = 4): significantly higher exposure than all other formulations tested
- systemic exposure (AUC 0 to 24 h), statistical comparison with both free base suspensions ([4]; Type IIIB-MCF 65 mg/kg, one-way ANOVA, p < 0.05, n = 4): significantly higher exposure

Compound: CCCCC(CC)COC(=O)CC(C(=O)OCC(CC)CCCC)S(=O)(=O)O.COc1cc2nccc(Oc3ccc(NC(=O)C4(C(=O)Nc5ccc(F)cc5)CC4)cc3)c2cc1OC [Cabozantinib docusate, cabozantinib docusate]
- bioavailability, fold enhanced compared to an aqueous suspension of cabozantinib free base ([5]; long-chain SEDDS): 1.8 fold
- bioavailability, fold enhanced compared to an aqueous suspension of cabozantinib free base ([5]; medium-chain SEDDS): 1.5 fold

Compound: C(=C\c1ccccc1)/CN1CCN(C(c2ccccc2)c2ccccc2)CC1.CCCCCCCCCCOS(=O)(=O)O [cinnarizine decyl sulfate]
- exposure, fold higher than equivalent dose of cinnarizine free base as a suspension in the same SEDDS formulation ([6]; rats, SEDDS formulation): ~ 2 fold

Compound: CCC(C)n1ncn(-c2ccc(N3CCN(c4ccc(OCC5COC(Cn6cncn6)(c6ccc(Cl)cc6Cl)O5)cc4)CC3)cc2)c1=O.CCCCC(CC)COC(=O)CC(C(=O)OCC(CC)CCCC)S(=O)(=O)O (stereo not shown) [itraconazole docusate]
- exposure compared with the commercial formulation Sporanox ([6]; rat, in vivo): greater exposure
- exposure, fold higher than an itraconazole suspension of equal dose ([6]; rat, in vivo): ~ 20 fold

Compound: CCCCN(CCCC)CC(O)c1cc(Cl)cc2c1-c1ccc(Cl)cc1/C2=C/c1ccc(Cl)cc1 (stereo not shown) [lumefantrine]
- oral bioavailability [7]: 4–11%

From publication PMC7023222, “Ionic Liquid Forms of the Antimalarial Lumefantrine in Combination with LFCS Type IIIB Lipid-Based Formulations Preferentially Increase Lipid Solubility, In Vitro Solubilization Behavior and In Vivo Exposure” (Pharmaceutics, 2019)
